The record followed here is patent publication US11261211B2, “19-NOR neuroactive steroids and methods of use thereof” (Sage Therapeutics, Inc., priority 2013, dated 2022).

One assay addresses α1β2γ2 GABAA receptor (Homo sapiens (Human), UniProt P14867+P47870). The assay is described as follows: Patch clamp electrophysiology of recombinant α1β2γ2 GABAA receptors in LTK cells. Format: cell-based. The note with it: 10 μM compound, Qpatch, Ltk cells, GABA EC20 2 μM. How it is done: Cellular electrophysiology is used to measure the pharmacological properties of our GABAA receptor modulators in heterologous cell systems. Each compound is tested for its ability to affect GABA mediated currents at a submaximal agonist dose (GABA EC20=2 μM). LTK cells are stably transfected with the α1β2γ2 subunits of the GABA receptor and CHO cells are transiently transfected with the α4β3δ subunits via the Lipofecatamine method. Cells were passaged at a confluence of about 50-80% and then seeded onto 35 mm sterile culture dishes containing 2 ml culture complete medium without antibiotics or antimycotics. Confluent clusters of cells are electrically coupled (Pritchett et al., 1988). Because responses in distant cells are not adequately voltage clamped and because of uncertainties about the extent of coupling (Verdoorn et al., 1990), cells were cultivated at a density that enables the recording of single cells (without visible connections to other cells).
Whole cell currents were measured with HEKA EPC-10 amplifiers using PatchMaster software or by using the high throughput QPatch platform (Sophion). Bath solution for all experiments contained (in mM): NaCl 137 mM, KCl 4 mM, CaCl2 1.8 mM, MgCl2 1 mM, HEPES 10 mM, D-Glucose 10 mM, pH (NaOH) 7.4. In some cases 0.005% cremophor was also added. Intracellular (pipette) solution contained: KCl 130 mM, MgCl2 1 mM, Mg-ATP 5 mM, HEPES 10 mM, EGTA 5 mM, pH 7.2. During experiments, cells and solutions were maintained at room temperature (19° C.-30° C.). For manual patch clamp recordings, cell culture dishes were placed on the dish holder of the microscope and continuously perfused (1 ml/min) with bath solution. After formation of a Gigaohm seal between the patch electrodes and the cell (pipette resistance range: 2.5 MΩ-6.0 MΩ; seal resistance range: >1 GΩ) the cell membrane across the pipette tip was ruptured to assure electrical access to the cell interior (whole-cell patch-configuration). For experiments using the QPatch system, cells were transferred as suspension to the QPatch system in the bath solution and automated whole cell recordings were performed.
Cells were voltage clamped at a holding potential of −80 mV. For the analysis of test articles, GABA receptors were stimulated by 2 μM GABA after sequential pre-incubation of increasing concentrations of the test article. Pre-incubation duration was 30 s and the duration of the GABA stimulus was 2 s. Test articles were dissolved in DMSO to form stock solutions (10 mM). Test articles were diluted to 0.01, 0.1, 1, and 10 μM in bath solution. All concentrations of test articles were tested on each cell. The relative percentage potentiation was defined as the peak amplitude in response to GABA EC20 in the presence of the test article divided by the peak amplitude in response to GABA EC20 alone, multiplied by 100.
With `C[C@@]1(O)CC[C@H]2[C@@H](CC[C@@H]3[C@@H]2CC[C@]2(C)[C@@H](C(=O)Cn4ncc5ncccc54)CC[C@@H]32)C1` [SB-5], the “α1β2γ2 GABA Qpatch in Ltk (Efficacy at 10 μm)” value is “B (“B” indicates an efficacy value of >100-500%)”.

As for `C[C@@]1(O)CC[C@H]2[C@@H](CC[C@@H]3[C@@H]2CC[C@]2(C)[C@@H](C(=O)Cn4ncc5ccncc54)CC[C@@H]32)C1` [SB-10], the “α1β2γ2 GABA Qpatch in Ltk (Efficacy at 10 μm)” value was “B (“B” indicates an efficacy value of >100-500%)”.

The assay is the same for the next values; noted with them: LTK, 10 μM compound, Qpatch, Ltk cells, GABA EC20 2 μM; read-out: α1β2γ2 GABA Qpatch in Ltk (Efficacy at 10 μm).
For the compound `C[C@@]1(O)CC[C@H]2[C@H](CC[C@@H]3[C@@H]2CC[C@]2(C)[C@@H](C(=O)Cn4nnc5c(Cl)cccc54)CC[C@@H]32)C1` [SA-76], the activity at 10 µM is more than 500%.

For the compound `C[C@@]1(O)CC[C@H]2[C@H](CC[C@@H]3[C@@H]2CC[C@]2(C)[C@@H](C(=O)Cn4nnc5cccc(Cl)c54)CC[C@@H]32)C1` [SA-77], the activity at 10 µM was more than 500%.

For the compound `C[C@]12CC[C@H]3[C@@H](CC[C@@H]4C[C@@](O)(CF)CC[C@@H]43)[C@@H]1CC[C@@H]2C(=O)Cn1nnc2ccccc21` [SA-79], the activity at 10 µM is more than 500%.

For the compound `C[C@]12CC[C@H]3[C@@H](CC[C@@H]4C[C@@](O)(CF)CC[C@@H]43)[C@@H]1CC[C@@H]2C(=O)Cn1ncc2ncccc21` [SA-84], the activity at 10 µM lay within 100 to 500%.

On to `C[C@]12CC[C@H]3[C@@H](CC[C@@H]4C[C@@](O)(CF)CC[C@@H]43)[C@@H]1CC[C@@H]2C(=O)Cn1cc2ccncc2n1` [SA-85], for which the activity at 10 µM was more than 500%.

As for `C[C@]12CC[C@H]3[C@@H](CC[C@@H]4C[C@@](O)(CF)CC[C@@H]43)[C@@H]1CC[C@@H]2C(=O)Cn1ncc2ccncc21` [SA-86], the activity at 10 µM fell in the range of 100 to 500%.

`C[C@]12CC[C@H]3[C@@H](CC[C@@H]4C[C@@](O)(CF)CC[C@@H]43)[C@@H]1CC[C@@H]2C(=O)Cn1nc2ccc(F)cc2n1` [SA-89]: the activity at 10 µM lay within 100 to 500%.

Consider `C[C@]12CC[C@H]3[C@@H](CC[C@@H]4C[C@@](O)(C(F)F)CC[C@@H]43)[C@@H]1CC[C@@H]2C(=O)Cn1nnc2ccccc21` [SA-90], for which the activity at 10 µM lay in the range of 10 to 100%.

In the case of `C[C@]12CC[C@H]3[C@@H](CC[C@@H]4C[C@@](O)(C(F)F)CC[C@@H]43)[C@@H]1CC[C@@H]2C(=O)Cn1nc2ccccc2n1` [SA-92], the activity at 10 µM was in the range of 100 to 500%.

With `C[C@]12CC[C@H]3[C@@H](CC[C@@H]4C[C@@](O)(C(F)F)CC[C@@H]43)[C@@H]1CC[C@@H]2C(=O)Cn1cc2ncccc2n1` [SA-93], the activity at 10 µM was more than 500%.

Consider `C[C@]12CC[C@H]3[C@@H](CC[C@@H]4C[C@@](O)(C(F)F)CC[C@@H]43)[C@@H]1CC[C@@H]2C(=O)Cn1ncc2ncccc21` [SA-94], for which the activity at 10 µM was in the range of 100 to 500%.

Turning to `C[C@]12CC[C@H]3[C@@H](CC[C@@H]4C[C@@](O)(C(F)F)CC[C@@H]43)[C@@H]1CC[C@@H]2C(=O)Cn1nnc2cnccc21` [SA-96], the activity at 10 µM fell in the range of 100 to 500%.

Consider `C[C@]12CC[C@H]3[C@@H](CC[C@@H]4C[C@@](O)(C(F)F)CC[C@@H]43)[C@@H]1CC[C@@H]2C(=O)Cn1nc2ccncc2n1` [SA-97], for which the activity at 10 µM is more than 500%.

For the compound `C[C@]12CC[C@H]3[C@@H](CC[C@@H]4C[C@@](O)(C(F)F)CC[C@@H]43)[C@@H]1CC[C@@H]2C(=O)Cn1cc2ccncc2n1` [SA-99], the activity at 10 µM is more than 500%.

As for `C[C@]12CC[C@H]3[C@@H](CC[C@@H]4C[C@@](O)(C(F)F)CC[C@@H]43)[C@@H]1CC[C@@H]2C(=O)Cn1nc2ccc(F)cc2n1` [SA-104], the activity at 10 µM lay within 100 to 500%.

Take `Cn1c(CC(=O)[C@H]2CC[C@H]3[C@@H]4CC[C@@H]5C[C@](C)(O)CC[C@@H]5[C@H]4CC[C@]23C)nc2ccccc21` [SA-105]: the activity at 10 µM is more than 500%.

`CC[C@@]1(O)CC[C@H]2[C@H](CC[C@@H]3[C@@H]2CC[C@]2(C)[C@@H](C(=O)Cn4cc5ncccc5n4)CC[C@@H]32)C1` [SA-110]: the activity at 10 µM is more than 500%.

As for `CC[C@@]1(O)CC[C@H]2[C@H](CC[C@@H]3[C@@H]2CC[C@]2(C)[C@@H](C(=O)Cn4ncc5ncccc54)CC[C@@H]32)C1` [SA-111], the activity at 10 µM was more than 500%.

Consider `CC[C@@]1(O)CC[C@H]2[C@H](CC[C@@H]3[C@@H]2CC[C@]2(C)[C@@H](C(=O)Cn4nnc5cnccc54)CC[C@@H]32)C1` [SA-112], for which the activity at 10 µM fell in the range of 100 to 500%.

Turning to `CC[C@@]1(O)CC[C@H]2[C@H](CC[C@@H]3[C@@H]2CC[C@]2(C)[C@@H](C(=O)Cn4nnc5ccncc54)CC[C@@H]32)C1` [SA-113], the activity at 10 µM was 100 to 500%.

On to `CC[C@@]1(O)CC[C@H]2[C@H](CC[C@@H]3[C@@H]2CC[C@]2(C)[C@@H](C(=O)Cn4nc5ccncc5n4)CC[C@@H]32)C1` [SA-114], for which the activity at 10 µM was more than 500%.

As to `COC[C@@]1(O)CC[C@H]2[C@H](CC[C@@H]3[C@@H]2CC[C@]2(C)[C@@H](C(=O)Cn4nnc5ccccc54)CC[C@@H]32)C1` [SA-115], the activity at 10 µM is more than 500%.

With `COC[C@@]1(O)CC[C@H]2[C@H](CC[C@@H]3[C@@H]2CC[C@]2(C)[C@@H](C(=O)Cn4cc5ncccc5n4)CC[C@@H]32)C1` [SA-116], the activity at 10 µM is more than 500%.

`COC[C@@]1(O)CC[C@H]2[C@H](CC[C@@H]3[C@@H]2CC[C@]2(C)[C@@H](C(=O)Cn4ncc5ncccc54)CC[C@@H]32)C1` [SA-117]: the activity at 10 µM was more than 500%.

With `COC[C@@]1(O)CC[C@H]2[C@H](CC[C@@H]3[C@@H]2CC[C@]2(C)[C@@H](C(=O)Cn4cc5ccncc5n4)CC[C@@H]32)C1` [SA-118], the activity at 10 µM is more than 500%.

As to `COC[C@@]1(O)CC[C@H]2[C@H](CC[C@@H]3[C@@H]2CC[C@]2(C)[C@@H](C(=O)Cn4ncc5ccncc54)CC[C@@H]32)C1` [SA-119], the activity at 10 µM was more than 500%.

Consider `COC[C@@]1(O)CC[C@H]2[C@H](CC[C@@H]3[C@@H]2CC[C@]2(C)[C@@H](C(=O)Cn4nc5ccc(F)cc5n4)CC[C@@H]32)C1` [SA-122], for which the activity at 10 µM is 100 to 500%.

Consider `COC[C@@]1(O)CC[C@H]2[C@H](CC[C@@H]3[C@@H]2CC[C@]2(C)[C@@H](C(=O)Cn4nnc5cnccc54)CC[C@@H]32)C1` [SA-123], for which the activity at 10 µM is 100 to 500%.

Consider `COC[C@@]1(O)CC[C@H]2[C@H](CC[C@@H]3[C@@H]2CC[C@]2(C)[C@@H](C(=O)Cn4nnc5ccncc54)CC[C@@H]32)C1` [SA-124], for which the activity at 10 µM was 100 to 500%.

In the case of `C[C@@]1(O)CC[C@H]2[C@@H](CC[C@@H]3[C@@H]2CC[C@]2(C)[C@@H](C(=O)Cn4nnc5ccccc54)CC[C@@H]32)C1` [SB-1], the activity at 10 µM was 100 to 500%.

For the compound `C[C@@]1(O)CC[C@H]2[C@@H](CC[C@@H]3[C@@H]2CC[C@]2(C)[C@@H](C(=O)Cn4nc5ccccc5n4)CC[C@@H]32)C1` [SB-2], the activity at 10 µM was more than 500%.

`C[C@@]1(O)CC[C@H]2[C@@H](CC[C@@H]3[C@@H]2CC[C@]2(C)[C@@H](C(=O)Cn4nnc5cnccc54)CC[C@@H]32)C1` [SB-7]: the activity at 10 µM fell in the range of 100 to 500%.

In the case of `C[C@@]1(O)CC[C@H]2[C@@H](CC[C@@H]3[C@@H]2CC[C@]2(C)[C@@H](C(=O)Cn4nc5ccc(F)cc5n4)CC[C@@H]32)C1` [SB-11], the activity at 10 µM is 100 to 500%.

For `C[C@]12CC[C@H]3[C@@H](CC[C@H]4C[C@@](O)(CF)CC[C@@H]43)[C@@H]1CC[C@@H]2C(=O)Cn1nnc2ccccc21` [SB-12], the activity at 10 µM lay within 100 to 500%.

For the compound `C[C@]12CC[C@H]3[C@@H](CC[C@H]4C[C@@](O)(CF)CC[C@@H]43)[C@@H]1CC[C@@H]2C(=O)Cn1nc2ccccc2n1` [SB-13], the activity at 10 µM is 100 to 500%.
